Measured values published in the NIST ThermoML archive (doi:10.1021/je900703f).

Settings: Liquid

FC(F)=C(F)C(F)(F)F [hexafluoropropene]
Settings | vapor or sublimation pressure [kPa]
263.17 K | 224.5
273.16 K | 324.4
293.12 K | 641
313.11 K | 1099.4
333.11 K | 1788.2
353.14 K | 2778.2
